Test results as given in patent US20250205173A1, “DERMAL AND TRANSDERMAL ADMINISTRATION OF TREPROSTINIL AND SALTS THEREOF” (CORSAIR PHARMA, INC., priority 2019, published 2025).

Assays:
[1] = In vitro skin permeability assay, vertical Franz diffusion cell; assay type: in vitro ADME; conditions: human epidermis from different donors, 32° C., N=4 per donor
Description: A skin permeability assay was performed using a vertical Franz diffusion cell having a diffusion area of 0.64 cm^2 and a volume of 7.5 mL. The assay was conducted at 32° C. with continuous stirring. Heat-separated human cadaver epidermis was used in the assay, the epidermis being stored at −20° C. after the heat-stripping procedure. The human epidermis was thawed prior to being mounted on the diffusion cell. Treprostinil was applied on the skin, and the diffusion cell was closed by screw-cap. At various time intervals, whole medium or receptor medium was replaced by fresh medium. Part of the collected medium was used to calculate the cumulative skin permeability of treprostinil at 72 hours. The skin permeability of treprostinil was evaluated using human epidermis from different donors. N=4 replicates were performed for treprostinil tested on human epidermis from a particular donor.

[2] = Skin irritation study of treprostinil reservoir-type transdermal patch, Draize scale; assay type: in vivo, Göttingen Minipigs; parameters: key to Edema score: 0: No edema; 1: Very slight edema (barely perceptible); 2: Slight edema (edges of area well defined by definite raising); 3: Moderate edema (raised about 1 mm); 4: Severe edema (raised >1 mm and extending beyond area of exposure); key to Erythema score: 0: No erythema; 1: Very slight erythema (barely perceptible); 2: Well-defined erythema; 3: Moderate to severe erythema; 4: Severe erythema (beet redness) to slight eschar formation (injuries in depth); conditions: for Edema score / Erythema score: 10 mg patch
Description: The pig is frequently used in studies involving dermal or transdermal administration of a drug because the skin of the pig is very similar to human skin. Skin irritation following transdermal administration of treprostinil from a reservoir-type transdermal patch was assessed in Göttingen Minipigs® (Marshall BioResources, North Rose, New York). The treprostinil-containing reservoir transdermal patch was a 32 cm^2 circular patch with a 6 cm^2 gel-sealed area and a 26 cm^2 peripheral skin-adhesive area. The placebo reservoir transdermal patch was a 39 cm^2 oval patch with a 12 cm^2 gel-sealed area and a 27 cm^2 peripheral skin-adhesive area. The reservoir of the patches comprised a gel composed of hydroxypropyl cellulose and containing ethanol, isopropyl myristate and 10 mg treprostinil or no active agent for the placebo patch. The reservoir was packaged by heat seal between a backing layer composed of metalized polyester/ethylene-vinyl acetate and a semi-permeable microporous membrane composed of polyethylene. A transparent release liner that protected the gel reservoir area and the peripheral adhesive area was peeled off immediately prior to patch application. The patches had the structure of the patch depicted in FIG. 1. To facilitate patch application (dosing) and to ensure animal safety during the dosing procedure, the minipigs were sedated with the anesthetic Telazol, if necessary, via intramuscular injection at an initial dose of 3-6 mg/kg. Any use of Telazol is indicated in the study data. Both the treprostinil-containing and placebo transdermal patches were applied to the dorsal surface of each of three female Göttingen Minipigs® weighing about 15-25 kg and were left in place for 24 hr. The dosing sites (the entire flank on both sides of the dorsal midline, caudal to the scapula) were carefully clipped with an electric clipper on the day prior to application of the patches and then were carefully washed with room temperature (RT) saline to remove dirt and debris. The prepared area was large enough to accommodate several patches. The dosing sites then were carefully shaved smooth with a razor while not causing any nick or cut. RT saline, but no shaving cream, could be used to assist shaving. The dosing sites were then wrapped with bandaging that was secured with a non-irritating, semi-occlusive tape (e.g., Elastikon tape). The minipigs were then fitted with a jacket. On the day of application of the patches, the jacket and wrapping were removed from the minipigs. The dosing sites were visually inspected to confirm the absence of any abrasion or obvious dermal pathology, and were gently cleaned with an isopropanol wipe and were then allowed to air-dry for at least 5 min. The patches were applied to areas of the skin without any abrasion or obvious dermal pathology by applying firm finger pressure to the peripheral adhesive area of the patches to ensure firm adherence of the peripheral area to the skin. To prevent detachment of the patches, TegadermTM dressing (or an equivalent transparent adhesive dressing, such as PatchProtectTM dressing) was applied over the patches, extending at least 2 inches beyond the edges of the patches and adhering to the peripheral area of the patches and to the skin surrounding the patches. The sites of patch application were wrapped with gauze or […] bandaging (or equivalent) that was secured with a non-irritating, semi-occlusive tape (e.g., Elastikon tape). The minipigs were then fitted with a jacket to prevent patch disturbance. The patches were kept in place at the dosing sites for 24 hr. […] Photographs of the sites of patch application were taken just prior to patch removal, following patch removal, and at 2 (±15 min), 24 (±1 hr), 48, 72, 96, 120, 144 and 168 hours after patch removal. The following scores are based on the Draize scale for scoring skin irritation [J. Draize et al., J. Pharmacol. Exp. Ther., 82:377-390 (1944)]. [table] [table]

[3] = Pharmacokinetics of transdermally delivered treprostinil from reservoir-type patch; conditions: Göttingen, minipig, in vivo, four patches, total 160 mg treprostinil, in place 72 hr, two male minipigs
From the text: Pharmacokinetics (PK) following transdermal administration of treprostinil from a reservoir-type transdermal patch was studied in Göttingen Minipigs® (Marshall BioResources). The treprostinil-containing reservoir transdermal patch was a 39 cm^2 oval patch with a 12 cm^2 gel-sealed area and a 27 cm^2 peripheral skin-adhesive area. […] Naïve male Göttingen Minipigs® about 6 months of age at receipt and weighing about 23 kg at patch application were used in the PK study. To facilitate application of the transdermal patch, the minipigs were sedated with Telazol at 3 mg/kg via intramuscular injection. Prior to patch application the dosing sites on the minipigs were prepared similarly as described in Example 2, and patch application was performed similarly as described in Example 2 except that bandaging was reapplied to the sites of patch application once a day. Four transdermal patches containing a total of 160 mg treprostinil were applied at the same time to the dorsal surface of each of two minipigs and were left in place for 72 hr. Blood samples were collected within 1 hr prior to application of the patches; at 3, 6, 12, 24, 48 and 72 hours after application of the patches; and at 0.167, 0.5, 1, 2, 4 and 6 hours after removal of the patches.

[4] = cited from earlier work
[5] = cited from earlier work; remark: listed apart in the source
[6] = minipig 601, 2 hr post patch removal, 24 hr
[7] = minipig 601, 24 hr post patch removal, 24 hr
[8] = minipig 601, 48 hr post patch removal, 24 hr
[9] = minipig 601, 72 hr post patch removal, 24 hr
[10] = minipig 601, 96 hr post patch removal, 24 hr
[11] = minipig 601, 120 hr post patch removal, 24 hr
[12] = minipig 601, before patch application
[13] = minipig 602, 2 hr post patch removal, 24 hr
[14] = minipig 602, 24 hr post patch removal, 24 hr
[15] = minipig 602, 48 hr post patch removal, 24 hr
[16] = minipig 602, 72 hr post patch removal, 24 hr
[17] = minipig 602, 96 hr post patch removal, 24 hr
[18] = minipig 602, 120 hr post patch removal, 24 hr
[19] = minipig 602, before patch application
[20] = minipig 603, 2 hr post patch removal, 24 hr
[21] = minipig 603, 24 hr post patch removal, 24 hr
[22] = minipig 603, 48 hr post patch removal, 24 hr
[23] = minipig 603, 72 hr post patch removal, 24 hr
[24] = minipig 603, 96 hr post patch removal, 24 hr
[25] = minipig 603, 120 hr post patch removal, 24 hr
[26] = minipig 603, before patch application

cumulative skin permeability at 72 hours [1]: high
concentration at 72 hr ([3]; other: transdermal (reservoir-type patch), read-out: C72 hr): 2.4 to 4.9 ng/mL
Cmax ([3]; topical or ocular): 20.8 to 27.6 ng/mL
Tmax ([3]; topical or ocular): 6 h
AUC(0-t) ([3]; topical or ocular, read-out: AUC0-72): 429 to 946 ng·h/mL
half-life ([3]; topical or ocular, read-out: half-life (T1/2) during treatment): 28 to 35 h
Compound: CCCCC[C@H](O)CC[C@@H]1[C@H]2Cc3cccc(OCC(=O)O)c3C[C@H]2C[C@H]1O [Treprostinil]
Edema score [2, 6]: 0
Erythema score [2, 6]: 1
Edema score [2, 7]: 0
Erythema score [2, 7]: 1
Edema score [2, 8]: 0
Erythema score [2, 8]: 1
Edema score [2, 9]: 0
Erythema score [2, 9]: 0
Edema score [2, 10]: 0
Erythema score [2, 10]: 0
Edema score [2, 11]: 0
Erythema score [2, 11]: 0
Edema score [2, 12]: 0
Erythema score [2, 12]: 0
Edema score [2, 13]: 0
Erythema score [2, 13]: 1
Edema score [2, 14]: 0
Erythema score [2, 14]: 1
Edema score [2, 15]: 0
Erythema score [2, 15]: 0
Edema score [2, 16]: 0
Erythema score [2, 16]: 0
Edema score [2, 17]: 0
Erythema score [2, 17]: 0
Edema score [2, 18]: 0
Erythema score [2, 18]: 0
Edema score [2, 19]: 0
Erythema score [2, 19]: 0
Edema score [2, 20]: 0
Erythema score [2, 20]: 2
Edema score [2, 21]: 0
Erythema score [2, 21]: 2
Edema score [2, 22]: 0
Erythema score [2, 22]: 0
Edema score [2, 23]: 0
Erythema score [2, 23]: 0
Edema score [2, 24]: 0
Erythema score [2, 24]: 0
Edema score [2, 25]: 0
Erythema score [2, 25]: 0
Edema score [2, 26]: 0
Erythema score [2, 26]: 0
skin irritation (summary) ([2]; reservoir patch 10 mg treprostinil with isopropyl myristate and ethanol, in place 24 hr, three female minipigs): did not cause significant skin irritation
systemic half-life ([4]; free acid, due to significant metabolism): very short
absolute oral bioavailability ([4]; treprostinil as the free acid, oral): less than 10%
peak-to-trough ratio of plasma concentrations ([5]; administered by inhalation): large
PAH patients who cannot take inhaled treprostinil due to irritation to the lungs ([5]; inhalation): about 50%
